Earlier results, collected in patent US8937168B2, “Method of producing purified rebaudioside A compositions using solvent/antisolvent crystallization” (Cargill, Incorporated, priority 2007, dated 2015).

Conditions: relative to sucrose; background statement

C=C1C[C@@]23CC[C@H]4[C@@](C)(CCC[C@@]4(C)C(=O)O[C@@H]4O[C@H](CO)[C@@H](O)[C@H](O)[C@H]4O)[C@@H]2CC[C@]1(O[C@@H]1O[C@H](CO)[C@@H](O)[C@H](O[C@@H]2O[C@H](CO)[C@@H](O)[C@H](O)[C@H]2O)[C@H]1O[C@@H]1O[C@H](CO)[C@@H](O)[C@H](O)[C@H]1O)C3 [Rebaudioside A, rebaudioside A]
times the sweetness of sucrose: 250-450 times
